Results: publication PMC4951196, “The Lamin B receptor is essential for cholesterol synthesis and perturbed by disease-causing mutations” (eLife, 2016)

Target: T1, Lamin B receptor (LBR) (Homo sapiens, UniProt Q14739)
T1 construct: Flag-tagged LBR, WT, expressed in Expi293 cells and purified
T1 sequence (Q14739 1-615): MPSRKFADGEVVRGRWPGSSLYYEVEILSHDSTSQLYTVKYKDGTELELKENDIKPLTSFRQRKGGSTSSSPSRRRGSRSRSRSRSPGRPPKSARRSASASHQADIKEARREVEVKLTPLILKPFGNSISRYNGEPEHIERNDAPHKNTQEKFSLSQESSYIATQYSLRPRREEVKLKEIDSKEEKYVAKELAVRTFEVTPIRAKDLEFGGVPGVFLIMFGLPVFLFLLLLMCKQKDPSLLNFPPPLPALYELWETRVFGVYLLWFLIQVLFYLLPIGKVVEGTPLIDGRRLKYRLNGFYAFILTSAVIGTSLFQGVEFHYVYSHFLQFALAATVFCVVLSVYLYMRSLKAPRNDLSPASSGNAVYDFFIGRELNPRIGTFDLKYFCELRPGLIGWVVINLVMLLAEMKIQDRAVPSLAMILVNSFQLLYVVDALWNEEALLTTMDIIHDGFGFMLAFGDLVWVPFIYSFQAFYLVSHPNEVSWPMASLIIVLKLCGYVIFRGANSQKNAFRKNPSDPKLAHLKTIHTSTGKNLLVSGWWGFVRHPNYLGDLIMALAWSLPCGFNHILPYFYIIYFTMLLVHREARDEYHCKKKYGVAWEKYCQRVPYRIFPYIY
Assay: intrinsic tryptophan fluorescence titration of purified LBR
Assay type: binding

Kd: 24.2 µM
Compound: NC(=O)C1=CN([C@@H]2O[C@H](COP(=O)(O)OP(=O)(O)OC[C@H]3O[C@@H](n4cnc5c(N)ncnc54)[C@H](OP(=O)(O)O)[C@@H]3O)[C@@H](O)[C@H]2O)C=CC1 [NADPH]
